We go through six compounds from US20240368191A1, “HETEROCYCLIC COMPOUNDS AND USES THEREOF” (Kumquat Biosciences Inc., priority 2021, published 2024).

In series [1] the test system is GP2D cells. As to the kind of experiment: Cell proliferation assay (CellTiter-Glo), K-Ras G12D cells. Format: cell-based. Conditions: bins given, read-out: Inhibition of GP2D Cells (IC50). As to the method: ASPC-1 (ATCC CRL-1682), Panc-10.05 (ATCC CRL-2547), A427, and GP2D (Sigma 95090714) cell lines comprise a G12D mutation and can be used to assess Ras cellular signaling in vitro, e.g., in response to the compounds herein. […] ASPC-1 culture medium is prepared with RPMI-1640 and 10% heat-inactivated FBS. Panc-10.05 culture medium is prepared with RPMI-1640, 10 Units/ml human recombinant insulin, and 10% FBS. A427 cell culture is prepared with RPMI-1640 and 10% heat-inactivated FBS. GP2D culture medium is prepared with DMEM with 2 mM glutamine and 10% heat-inactivated FBS. A CellTiter-Glo (CTG) luminescent based assay (Promega) is used to assess growth of the cells, as a measurement of the ability of the compounds herein to inhibit Ras signaling in the cells. The cells (e.g., 800 per well) are seeded in their respective culture medium in standard tissue culture-treated 384-well format plates (Falcon #08-772-116) or ultra-low attachment surface 384-well format plates (S-Bio #MS-9384UZ). The day after plating, cells are treated with a dilution series (e.g., a 9 point 3-fold dilution series) of the compounds herein (e.g., approximately 40 μl final volume per well). Cell viability can be monitored (e.g., approximately 5 days later) according to the manufacturer's recommended instructions, where the CellTiter-Glo reagent is added (e.g., approximately 10 μl), vigorously mixed, covered, and placed on a plate shaker (e.g., approximately for 20 min) to ensure sufficient cell lysis prior to assessment of luminescent signal. The IC50 values are determined using the four parameter fit. The resulting IC50 value is a measurement of the ability of the compounds herein to reduce cell growth of Ras-driven cells (e.g., tumor cell lines) in vitro and/or in vivo.
Background: Cellular ATP, detected with luciferase, serves as a proxy for viable cell number.

In series [2] the target is T1, K-Ras G12S (Homo sapiens, UniProt P01116, G12S).
T1 construct: made in house; host or cells: E. coli, e.g. BL21 (DE3)
In words: HTRF assay, K-Ras G12S / SOS1 interaction. Format: biochemical. Conditions: IC50 against K-Ras G12D divided by IC50 against K-Ras G12S. From the text:
This assay can be also used to assess a selective inhibition or reduction of signaling output of a mutant Ras protein relative to a wildtype, or relative to a different mutant Ras protein. For example, the equilibrium interaction of wildtype Kras or K-Ras mutant (e.g., wildtype or a mutant thereof including those mentioned in Example 6) with SOS1 (e.g., hSOS1) can be assessed as a proxy or an indication for a subject compound's ability to bind and inhibit Ras protein. HTRF assay detects from (i) a fluorescence resonance energy transfer (FRET) donor (e.g., antiGST-Europium) that is bound to GST-tagged K-Ras mutant to (ii) a FRET acceptor (e.g., anti-6His -XL665) bound to a His -tagged hSOS1.
The assay buffer can contain ˜5 mM HEPES pH 7.4, ˜150 mM NaCl, ˜1 mM DTT, 0.05% BSA and 0.0025% (v/v) Igepal. A Ras working solution is prepared in an assay buffer containing typically a suitable amount of the protein construct (e.g., GST-tagged K-Ras mutant) and the FRET donor (e.g., antiGST-Eu(K) from Cisbio, France). A SOS1 working solution is prepared in an assay buffer containing suitable amount of the protein construct (e.g., His -hSOS1) and the FRET acceptor (e.g., anti-6His -XL665 from Cisbio, France). A suitable amount of the protein construct will depend on the range of activity or range of IC50 values being detected or under investigation. For detecting IC50 within a range of 500 nM, the protein constructs of the same range of molarity can be utilized.
A fixed volume of DMSO with or without test compound is transferred into a 384-well plate. Ras working solution is added to all wells of the test plate. SOS1 working solution is added to all wells except for those that are subsequently filled the inhibitor control solution. Upon incubation for about 10 minutes or longer, the fluorescence is measured with a M1000Pro plate reader (Tecan) using HTRF detection (excitation 337 nm, emission 1: 620 nm, emission 2: 665 nm). Compounds are tested in duplicates at different concentrations (for example, 10 μM, 2.5 μM, 0.63 μM, 0.16 μM, 0.04 μM, 0.01 μM test compound). The ratiometric data (i.e., emission 2 divided by emission 1) is used to calculate IC50 values against Ras using GraphPad Prism (GraphPad software). Following this general procedure, samples were tested with or without a subject compound disclosed herein including compounds exemplified in Table 3 to assess their abilities to inhibit K-Ras G12S relative to another mutant (e.g., K-Ras G12D). Signaling output measured in terms of IC50 values can be obtained, a ratio of IC50 against one mutant relative to another mutant can be calculated. For instance, a selective reduction of K-Ras G12S signaling output can be evidenced by a ratio greater than one. In particular, a selective reduction of K-Ras G12S signaling relative to K-Ras G12D signaling is evidenced as the ratio of IC50 (against K-Ras G12D) to IC50 (against K-Ras G12S) is greater than 1.

The test system of series [3] is A549 cells. As to the kind of experiment: Cell proliferation assay (CellTiter-Glo), K-Ras G12S cells. It counts as cell-based. Conditions: Homo sapiens, A549; ≤500 nM; read-out: Inhibition of A549 Cells (IC50). As to the method: (§1) A549 (ATCC CRL-185) and LS123 (ATCC CRL-255) cell lines comprise a G12S mutation and can be used to assess Ras cellular signaling in vitro, e.g., in response to the compounds herein. A549 culture medium is prepared with RPMI-1640 and 10% heat-inactivated FBS. LS123 culture medium is prepared with RPMI-1640 and 10% heat-inactivated FBS. A CellTiter-Glo (CTG) luminescent based assay (Promega) is used to assess growth of the cells, as a measurement of the ability of the compounds herein to inhibit Ras signaling in the cells. The cells (e.g., 800 per well) are seeded in their respective culture medium in standard tissue culture-treated 384-well format plates (Falcon #08-772-116) or ultra-low attachment surface 384-well format plates (S-Bio #MS-9384WZ). The day after plating, cells are treated with a dilution series (e.g., a 10 point 3-fold dilution series) of the compounds herein (e.g., approximately 40 μl final volume per well). Cell viability can be monitored (e.g., approximately 6 days later) according to the manufacturer's recommended instructions, where the CellTiter-Glo reagent is added (e.g., approximately 10 μl), vigorously mixed, covered, and placed on a plate shaker (e.g., approximately for 20 min) to ensure sufficient cell lysis prior to assessment of luminescent signal. The IC50 values are determined using the four parameter fit. The resulting IC50 value is a measurement of the ability of the compounds herein to reduce cell growth of Ras-driven cells (e.g., tumor cell lines) in vitro and/or in vivo.

Series [4] addresses T2, KRAS G12S 1-169 (His-tagged, GDP-loaded) (Homo sapiens, UniProt P01116, G12S).
T2 construct: His -tagged GDP-loaded G12S 1-169; made in house; host or cells: E. coli, e.g. BL21 (DE3)
As to the kind of experiment: Covalent modification of KRAS protein by intact-protein LC-MS. It counts as binding. Conditions: KRAS G12S, 24 hr. The gist of the method:
(§2)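 Percent modification is derived from deconvoluted intact-protein LC-ESI-MS peak intensities of adducted versus unmodified KRAS. GDP-loaded His-tagged KRAS 1-169 (~2 μM, HEPES buffer at physiological conditions) was exposed to compound for 24 hrs at room temperature, then quenched with formic acid before C4 reversed-phase separation.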

The target in series [5] is T3, KRAS G12D 1-169 (His-tagged, GDP-loaded) (Homo sapiens, UniProt P01116, G12D).
T3 construct: His -tagged GDP-loaded G12D 1-169; made in house; host or cells: E. coli, e.g. BL21 (DE3)
The description is as above. It counts as binding. Conditions: comparable or same conditions as K-Ras G12S. The gist of the method:
as §2

Series [6] relates to LS123 cells. In words: Cell proliferation assay (CellTiter-Glo), K-Ras G12S cells. Particulars: Comparative Compound A lacking the warhead vs Compound B. Format: cell-based. As to the method:
as §1

Series [7] can be described thus: in vitro. Conditions: microsomes, pH 7.4.

Molecules are shown by their SMILES. Where only a bound is given, the exact number is not on record here.

For orientation: IC50 means the concentration at which inhibition is half-maximal. One may read the half-life as how long it takes for the measured level to halve. Read a high half-life as slow loss.

As for `N#Cc1cn(C(=O)N2CC3(CCN(c4nc(OC[C@@]56CCCN5C[C@H](F)C6)nc5c(F)c(-c6ccc(F)c7sc(N)nc67)c(Cl)cc45)CC3)C2)cn1` [Compound A179, 1-(7-(7-(2-amino-7-fluorobenzo-[d]thiazol-4-yl)-6-chloro-8-fluoro-2-(((2R,7aS)-2-fluoro-tetrahydro-1H-pyrrolizin-7a(5H)-yl)methoxy)quinazolin-4-yl)-2,7-diazaspiro[3.5]nonane-2-carbonyl)-1H-imidazole-4-carbonitrile], the IC50 in series [1] was 1000 to 10000 nM. Further, the “Ratio of IC50 KRAS G12D vs. IC50 KRAS G12S” value in series [2] is reported as “A (A: indicates that the ratio of IC50 against KrasG12D vs. IC50 against KrasG12S is 1-fold or greater)”.

`Cc1cn(C(=O)N2C3CCC2CN(c2nc(OC[C@@]45CCCN4C[C@H](F)C5)nc4c(F)c(-c5ccc(F)c6sc(N)c(C#N)c56)c(Cl)cc24)C3)nn1` [Compound A189, 2-amino-4-(6-chloro-8-fluoro-2-(((2R,7aS)-2-fluorotetrahydro-1H-pyrrolizin-7a(5H)-yl)meth-oxy)-4-(8-(4-methyl-1H-1,2,3-triazole-1-carbonyl)-3,8-diaza-bicyclo[3.2.1]octan-3-yl)quin-azolin-7-yl)-7-fluorobenzo[b]-thiophene-3-carbonitrile]: the IC50 in series [3] was at most 500 nM; in series [1], at most 1000 nM.

As to `N#Cc1c(N)sc2c(F)ccc(-c3c(Cl)cc4c(N5CC(F)(F)C6(CN(C(=O)n7cncn7)C6)C5)nc(OC[C@@]56CCCN5C[C@H](F)C6)nc4c3F)c12` [Compound A199, 2-amino-4-(6-chloro-4-(8,8-difluoro-2-(1H-1,2,4-triazole-1-carbonyl)-2,6-diazaspiro[3.4]-octan-6-yl)-8-fluoro-2-(((2R,7aS)-2-fluorotetrahydro-1H-pyrrolizin-7a(5H)-yl)meth-oxy)quinazolin-7-yl)-7-fluoro-benzo[b]thiophene-3-carbonitrile], the IC50 in series [3] is at most 500 nM; in series [1], 1000 to 10000 nM. Also, in series [4], the “% G12S Modification at 24 hr.” value is “+++ (+++ indicates greater than 20% labelling)”. For the same compound, the “covalent labeling of K-Ras G12D” value in series [5] is “essentially no detectable labeling”.

Regarding `C#Cc1c(F)ccc2cc(O)cc(-c3ccc4c(N5CCCC6(CN(C(=O)n7cncn7)C6)C5)nc(OC[C@@]56CCCN5C[C@H](F)C6)nc4c3F)c12` [Compound A210, (6-(7-(8-ethynyl-7-fluoro-3-hydroxynaphthalen-1-yl)-8-fluoro-2-(((2R,7aS)-2-fluoro-tetrahydro-1H-pyrrolizin-7a(5H)-yl)methoxy)quinazolin-4-yl)-2,6-diazaspiro[3.5]nonan-2-yl)(1H-1,2,4-triazol-1-yl)-methanone], the “Compound IC50 Ratio IC50 (Cpd A):IC50 (Cpd B)” value in series [6] was >4 (LS123 cells).

For the compound `C#Cc1c(F)ccc2cc(O)cc(-c3ncc4c(N5CC6CCC(C5)N6C(=O)n5ccc(C#N)n5)nc(OC[C@@]56CCCN5C[C@H](F)C6)nc4c3F)c12` [Compound A216, 1-(3-(7-(8-ethynyl-7-fluoro-3-hydroxynaphthalen-1-yl)-8-fluoro-2-(((2R,7aS)-2-fluoro-tetrahydro-1H-pyrrolizin-7a(5H)-yl)methoxy)pyrido[4,3-d]pyrimidin-4-yl)-3,8-diaza-bicyclo[3.2.1]octane-8-carbon-yl)-1H-pyrazole-3-carbonitrile], the IC50 in series [3] was at most 500 nM; in series [1], at most 1000 nM. The same compound returned a half-life at 0.5 μM in series [7] above 10 min.

For `N#Cc1c(N)sc2c(F)ccc(-c3c(Cl)cc4c(N5CCCCC6(CN(C(=O)n7cncn7)C6)C5)nc(OC[C@@]56CCCN5C[C@H](F)C6)nc4c3F)c12` [Compound A295, 4-(4-(2-(1H-1,2,4-triazole-1-carbonyl)-2,6-diazaspiro[3.6]-decan-6-yl)-6-chloro-8-fluoro-2-(((2R,7aS)-2-fluorotetra-hydro-1H-pyrrolizin-7a(5H)-yl)methoxy)quinazolin-7-yl)-2-amino-7-fluorobenzo[b]thio-phene-3-carbonitrile], in series [6], the “Compound IC50 Ratio IC50 (Cpd A):IC50 (Cpd B)” value was >4 (LS123 cells). Also, the “covalent labeling of K-Ras G12D” value in series [5] is listed as “essentially no detectable labeling”.
